Measurements from US10717749B2, “Macrocyclic sulfondiimine compounds” (BAYER PHARMA AKTIENGESELLSCHAFT, priority 2015, dated 2020).

Assays:
[1] = target: T1, CDK9/CycT1 (Homo sapiens, UniProt P50750); assay: CDK9/CycT1 kinase assay (Method 1a, TR-FRET, 10 μM ATP); format: biochemical; details: for IC50: Method 1a, 10 μM ATP; for Selectivity CDK9 over CDK2: IC50 (CDK2)/IC50 (CDK9): Methods 1a and 2a, minimal values
T1 construct: Recombinant full-length His-tagged human CDK9 and CycT1; His; purchased Invitrogen PV4131; host or cells: insect cells
T1 sequence (P50750 whole entry): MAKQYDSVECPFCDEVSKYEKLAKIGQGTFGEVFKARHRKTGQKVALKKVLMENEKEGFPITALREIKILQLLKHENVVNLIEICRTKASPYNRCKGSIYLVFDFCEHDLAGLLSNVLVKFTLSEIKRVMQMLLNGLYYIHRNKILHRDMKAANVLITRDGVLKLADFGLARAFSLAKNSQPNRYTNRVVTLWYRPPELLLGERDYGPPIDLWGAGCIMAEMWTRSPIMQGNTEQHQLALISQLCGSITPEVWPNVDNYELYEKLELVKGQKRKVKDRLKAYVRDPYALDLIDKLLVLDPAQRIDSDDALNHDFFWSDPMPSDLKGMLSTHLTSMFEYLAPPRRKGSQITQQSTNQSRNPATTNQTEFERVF
T1 sequence (O60563 whole entry partner): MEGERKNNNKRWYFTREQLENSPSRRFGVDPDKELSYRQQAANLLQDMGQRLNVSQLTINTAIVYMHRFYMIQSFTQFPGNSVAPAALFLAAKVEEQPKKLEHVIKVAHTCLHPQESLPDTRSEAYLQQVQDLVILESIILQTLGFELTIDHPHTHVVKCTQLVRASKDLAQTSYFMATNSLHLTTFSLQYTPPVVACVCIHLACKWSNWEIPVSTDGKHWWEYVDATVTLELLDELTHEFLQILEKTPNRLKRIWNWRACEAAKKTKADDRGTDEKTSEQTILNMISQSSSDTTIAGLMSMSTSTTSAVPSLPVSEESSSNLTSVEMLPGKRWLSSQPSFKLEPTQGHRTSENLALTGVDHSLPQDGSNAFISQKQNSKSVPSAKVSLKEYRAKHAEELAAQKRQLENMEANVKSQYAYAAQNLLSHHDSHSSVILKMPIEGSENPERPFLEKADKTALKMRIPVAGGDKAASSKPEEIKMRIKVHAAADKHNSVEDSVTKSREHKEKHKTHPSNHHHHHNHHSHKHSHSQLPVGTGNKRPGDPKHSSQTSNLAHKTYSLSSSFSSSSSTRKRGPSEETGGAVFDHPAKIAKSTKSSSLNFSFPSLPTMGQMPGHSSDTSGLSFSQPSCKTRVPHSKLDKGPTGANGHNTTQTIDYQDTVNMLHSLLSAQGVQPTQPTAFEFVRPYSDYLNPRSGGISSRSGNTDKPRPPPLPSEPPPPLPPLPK
Source text: 1a. CDK9/CycT1 Kinase Assay:
CDK9/CycT1-inhibitory activity of compounds of the present invention was quantified employing the CDK9/CycT1 TR-FRET assay as described in the following paragraphs:
Recombinant full-length His-tagged human CDK9 and CycT1, expressed in insect cells and purified by Ni-NTA affinity chromatography, were purchased from Invitrogen (Cat. No PV4131). As substrate for the kinase reaction biotinylated peptide biotin-Ttds-YISPLKSPYKISEG (C-terminus in amid form) was used which can be purchased e.g. from the company JERINI Peptide Technologies (Berlin, Germany). For the assay 50 nl of a 100 fold concentrated solution of the test compound in DMSO was pipetted into a black low volume 384 well microtiter plate (Greiner Bio-One, Frickenhausen, Germany), 2 μl of a solution of CDK9/CycT1 in aqueous assay buffer [50 mM Tris/HCl pH 8.0, 10 mM MgCl2, 1.0 mM dithiothreitol, 0.1 mM sodium ortho-vanadate, 0.01% (v/v) Nonidet-P40 (Sigma)] were added and the mixture was incubated for 15 min at 22° C. to allow pre-binding of the test compounds to the enzyme before the start of the kinase reaction. Then the kinase reaction was started by the addition of 3 μl of a solution of adenosine-tri-phosphate (ATP, […]=> final conc. in the 5 μl assay volume is 10 μM) and substrate (1.67 μM=> final conc. in the 5 μl assay volume is 1 μM) in assay buffer and the resulting mixture was incubated for a reaction time of 25 min at 22° C. The concentration of CDK9/CycT1 was adjusted depending of the activity of the enzyme lot and was chosen appropriate to have the assay in the linear range, typical concentrations were in the range of 1 μg/mL. The reaction was stopped by the addition of 5 μl of a solution of TR-FRET detection reagents (0.2 μM streptavidine-XL665 [Cisbio Bioassays, Codolet, France] and 1 nM anti-RB(pSer807/pSer811)-antibody from BD Pharmingen [#558389] and 1.2 nM LANCE EU-W1024 labeled anti-mouse IgG antibody [Perkin-Elmer, product no. AD0077]) in an aqueous EDTA-solution (100 mM EDTA, 0.2% (w/v) bovine serum albumin in 100 mM HEPES pH 7.5).
The resulting mixture was incubated 1 h at 22° C. to allow the formation of complex between the phosphorylated biotinylated peptide and the detection reagents. Subsequently the amount of phosphorylated substrate was evaluated by measurement of the resonance energy transfer from the Eu-chelate to the streptavidine-XL. Therefore, the fluorescence emissions at 620 nm and 665 nm after excitation at 350 nm was measured in a HTRF reader, e.g. a Rubystar (BMG Labtechnologies, Offenburg, Germany) or a Viewlux (Perkin-Elmer). The ratio of the emissions at 665 nm and at […] was taken as the measure for the amount of phosphorylated substrate. The data were normalised (enzyme reaction without inhibitor=0% inhibition, all other assay components but no enzyme=100% inhibition).

[2] = tested on: NCI-H460; assay: Proliferation assay, crystal violet; format: cell-based; details: Homo sapiens, 96 h; NCI-H460, 4 days; read-out: Inhibition of NCI-H460 cell proliferation IC50
Experimental: (§1) Cultivated tumour cells (HeLa, human cervical tumour cells, ATCC CCL-2; NCI—H460, human non-small cell lung carcinoma cells, ATCC HTB-177; DU 145, hormone-independent human prostate carcinoma cells, ATCC HTB-81; HeLa-MaTu-ADR, multidrug-resistant human cervical carcinoma cells, EPO-GmbH Berlin; Caco-2, human colorectal carcinoma cells, ATCC HTB-37; B16F10, mouse melanoma cells, ATCC CRL-6475) were plated at a density of 3,500 cells/well (DU145), 3,000 cells/well (HeLa-MaTu-ADR), 1,500 cells/well (NCI—H460), 3,000 cells/well (HeLa), 2,000 cells/well (Caco-2), or 1,000 cells/well (B16F10) in a 96-well multititer plate in 150 μL of their respective growth medium supplemented 10% fetal calf serum. After 24 hours, the cells of one plate (zero-point plate) were stained with crystal violet (see below), the test substances were added in various concentrations (0 μM, as well as in the range of 0.0001-10 μM) employing HP Dispenser. The cells were incubated for 4 days in the presence of test substances. Cell proliferation was determined by staining the cells with crystal violet: the cells were fixed by adding 20 μl/measuring point of an 11% glutaric aldehyde solution for 15 minutes at room temperature. After three washing cycles of the fixed cells with water, the plates were dried at room temperature. The cells were stained by adding 100 μl/measuring point of a 0.1% crystal violet solution DU 145, Caco-2, HeLa (pH 4.5) B16F10, NCI—H460, HeLa-MaTu-ADR. After three washing cycles of the stained cells with water, the plates were dried at room temperature. The dye was dissolved by adding 100 μl per measuring point of a 10% acetic acid solution. The extinction was determined by photometry at a wavelength of 595/550/620 nm depending on the intensity of coloration, usually at 595 nm. The change of cell number, in percent, was calculated by normalization of the measured values to the extinction values of the zero-point plate (=0%) and the extinction of the untreated (0 μM) cells (=100%). The IC50 values (inhibitory concentration at 50% of maximal effect) were determined by means of a 4 parameter fit.

[3] = tested on: DU145; assay: Proliferation assay, crystal violet; format: cell-based; details: Homo sapiens, DU-145, 96 h; DU145, 4 days; read-out: Inhibition of DU145 cell proliferation IC50
Experimental: as §1

[4] = tested on: B16F10; assay: Proliferation assay, crystal violet; format: cell-based; details: Mus musculus, B16-F10, 96 h; B16F10, 4 days; read-out: Inhibition of B16F10 cell proliferation IC50
Experimental: as §1

[5] = tested on: HeLa; assay: Proliferation assay, crystal violet; format: cell-based; details: Homo sapiens, 96 h, 4 days, read-out: Inhibition of HeLa cell proliferation IC50
Experimental: as §1

[6] = tested on: Caco-2; assay: Proliferation assay, crystal violet; format: cell-based; details: Homo sapiens, 96 h; Caco-2, 4 days; read-out: Inhibition of Caco-2 cell proliferation IC50
Experimental: as §1

Row | Compound | IC50 [1] | Selectivity CDK9 over CDK2: IC50 (CDK2)/IC50 (CDK9) [1] | IC50 [2] | IC50 [3] | IC50 [4] | IC50 [5] | IC50 [6]
1 | CN=S(C)(=N)Cc1cc2nc(c1)OCCCOc1cc(F)ccc1-c1cc(ncc1F)N2 (racemic) [Example 4, (rac)-8-[(N,S-dimethylsulfonodiimidoyl)methyl]-15,19-difluoro-3,4-dihydro-2H,11H-10,6-(azeno)-12,16-(metheno)-1,5,11,13-benzodioxadiazacyclooctadecine] | 0.0092 µM | 4.1 |  |  |  |  | 
2 | CS(=N)(Cc1cc2cc(c1)OCCCCOc1cc(F)ccc1-c1nc(ncc1F)N2)=NC1CC1 (racemic) [Example 9, (rac)-9-[(N-cyclopropyl-S-methylsulfonodiimidoyl)methyl]-16,20-difluoro-2,3,4,5-tetrahydro-12H-13,17-(azeno)-11,7-(metheno)-1,6,12,14-benzodioxadiazacyclononadecine] | 0.0036 µM | 39.7 | 0.056 µM | 0.118 µM | 0.0922 µM | 0.0316 µM | 0.0478 µM
3 | CS(=N)(=N)Cc1cc2cc(c1)OCCCCOc1c(ccc(F)c1F)-c1nc(ncc1F)N2 [Example 6, 16,20,21-trifluoro-9-[(S-methylsulfonodiimidoyl)methyl]-2,3,4,5-tetrahydro-12H-13,17-(azeno)-11,7-(metheno)-1,6,12,14-benzodioxadiazacyclononadecine] | 0.0082 µM | 174 | 0.369 µM | 0.36 µM | 0.683 µM | 0.313 µM | 0.325 µM
4 | CS(=N)(=N)Cc1cc2cc(c1)OCCCCOc1c(F)cccc1-c1nc(ncc1F)N2 [Example 7, 16,21-difluoro-9-[(S-methylsulfonodiimidoyl)methyl]-2,3,4,5-tetrahydro-12H-13,17-(azeno)-11,7-(metheno)-1,6,12,14-benzodioxadiazacyclononadecine] | 0.0056 µM | 209 | 0.448 µM | 0.396 µM | 0.784 µM | 0.332 µM | 0.396 µM
5 | CS(=N)(=N)Cc1cc2nc(c1C#N)OCCCOc1cc(F)ccc1-c1cc(ncc1F)N2 [Example 8, 15,19-difluoro-8-[(S-methylsulfonodiimidoyl)methyl]-3,4-dihydro-2H,11H-10,6-(azeno)-12,16-(metheno)-1,5,11,13-benzodioxadiazacyclooctadecine-7-carbonitrile] | 0.0037 µM | 19.2 |  | 0.0112 µM | 0.0507 µM | 0.0055 µM | 0.0431 µM

These reach a lower IC50 [1]. Values come first.

Row | IC50 [1] | Selectivity CDK9 over CDK2: IC50 (CDK2)/IC50 (CDK9) [1] | IC50 [2] | IC50 [3] | IC50 [4] | IC50 [5] | IC50 [6] | Compound
6 | 0.0034 µM | 27.2 | 0.0383 µM | 0.0362 µM | 0.0506 µM | 0.0258 µM | 0.0352 µM | CS(=N)(=N)Cc1cc2cc(c1)OCCCCOc1cc(F)ccc1-c1nc(ncc1F)N2 [Example 5, 16,20-difluoro-9-[(S-methylsulfonodiimidoyl)methyl]-2,3,4,5-tetrahydro-12H-13,17-(azeno)-11,7-(metheno)-1,6,12,14-benzodioxadiazacyclononadecine]
7 | 0.0033 µM | 5.0 | 0.0104 µM | 0.0091 µM | 0.0143 µM | 0.0028 µM | 0.0164 µM | CS(=N)(=N)Cc1cc2nc(c1)OCCCOc1cc(F)ccc1-c1cc(ncc1F)N2 [Example 1, 15,19-difluoro-8-[(S-methylsulfonodiimidoyl)methyl]-3,4-dihydro-2H,11H-10,6-(azeno)-12,16-(metheno)-1,5,11,13-benzodioxadiazacyclooctadecine]
8 | 0.0029 µM | 7.8 | 0.0898 µM | 0.0295 µM | 0.0374 µM | 0.0102 µM | 0.0287 µM | CS(=N)(Cc1cc2nc(c1)OCCCOc1cc(F)ccc1-c1cc(ncc1F)N2)=NCCCO (racemic) [Example 2, (rac)-3-(2-{[15,19-difluoro-3,4-dihydro-2H,11H-10,6-(azeno)-12,16-(metheno)-1,5,11,13-benzodioxadiazacyclooctadecin-8-yl]methyl}-2-methyl-2λ^6-diazathia-1,2-dien-1-yl)propan-1-ol]
9 | 0.0029 µM | 2.1 |  |  |  |  |  | CS(=N)(Cc1cc2nc(c1)OCCCOc1cc(F)ccc1-c1cc(ncc1F)N2)=NC#N (racemic) [Example 3, (rac)-[{[15,19-difluoro-3,4-dihydro-2H,11H-10,6-(azeno)-12,16-(metheno)-1,5,11,13-benzodioxadiazacyclooctadecin-8-yl]methyl}(imino)methyl-λ^6-sulfanylidene]cyanamide]
